In patent US6699842B1, “Dominant negative deletion mutants of C-jun and their use in the prevention and treatment of cancer” (The United States of America as represented by the …, priority 1994, dated 2004):

Tests used:
Assay type in all cases: cell-based, mouse
AP-1 = test: CAT assay with stromelysin promoter reporter P750TRCAT (AP-1 dependent) in JB6 P+ Cl 41 cells; conditions: for inhibition of TPA-induced CAT activity: 8 hours
From the text: The plasmid constructs used in the following examples were as follows: P750TRCAT is a CAT reporter construct containing 750 bp of the rat stromelysin promoter driving the heterogolous gene chloramphenicol acetyl-transferase (CAT). This construct contains an AP-1 binding sequence at position −70 (Matrisian, L. M. et al. (1991) Am. J. Medic. Sci., 302: 157-162, Kerr, L. D. et al. (1988) Science., 242: 1424-1427, McDonnell, S. E. et al. (1990) Mol. Cell. Biol. 105 4284-4293). The mTRE-CAT reporter is a site-directed mutant with 2 point mutations in the AP-1 site (Matrisian, L. M. et al. (1991) Am. J. Medic. Sci., 302: 157-162) and the mPEA3-CAT reporter is a site-directed mutant in which point mutations in each of the PEA3 sites at position −208 to −200 and −191 to −199 of the stromelysin promoter were introduced using a protocol provided with the site-directed mutagenesis kit of Amersham Corp. (Arlington Heights, Ill.) and an oligonucleotide having SEQ ID NO.:1 GCAAGAAGCATTTCTTGG.
In brief, JB6 Cl 41 (P^+) cells transfected for 4-5 hours using a standard calcium phosphate transfection procedure (Sambrook, J. et al. (1989) “Molecular Cloning, A Laboratory Manual” Cold Spring Harbor Laboratory Press, Cold Spring Harbor, N.Y.) with 10 μg of one of three CAT reporter plasmid DNAs, P750TRCAT, mTRE-CAT or mPEA3-CAT and 10 μg of sheared genomic DNA isolated from Cl 41 cells were then changed to medium containing 2% fetal calf serum and twenty-four to forty-two hours later, were treated with either 0.1% of DMSO, 10 ng/ml of TPA or 10 ng/ml EGF for eight hours prior to preparation of total cell extracts. CAT enzyme activity was assayed using a diffusion-based CAT assay according to the protocol provided by the manufacturers (New England Nuclear, Del.). The results are expressed as the rate of accumulation of [^14C]-acetylated product relative to solvent controls (DMSO).
In order to determine whether TPA-induced CAT activity in JB6 P^+ cells is capable of being abolished, TPA induced CAT activity was measured in the presence of the known AP-1 inhibitors retinoic acid (RA) and fluocinolone acetonide (FA). In brief, JB6 P^+ Cl 41 cells were transfected with 10 μg of P750TRCAT and 10 μg of sheared genomic DNA from Cl 41 cells as in Example 1. 24-42 hours after transfection, cells were then exposed for 8 hours to either 0.1% DMSO, […] (TPA), 10^−7 M fluocinolone acetonide (FA) in the absence of 10 ng/ml TPA (FA7), 10^−9, 10^−8 and 10^−7 M FA in the presence of 10 ng/ml TPA (TFA9, TFA8, TFA7, respectively), 10^−5 M retinoic acid (RA) in the absence of 10 ng/ml TPA (RA5), or to 10^−7, 10^−6 and 10^−5 M RA in the presence of 10 ng/ml TPA (TRA7, TRA6, TRA5 respectively). Following the above treatments, total cell extracts were prepared and CAT enzyme activity was assayed as in Example 1. As before, the results are expressed as the rate of accumulation of ^14C-acetylated product relative to solvent controls.
In order to determine whether an overexpressed TAM67 protein could repress TPA-induced CAT activity in JB6 P^+ cells, eight TAM67 clonal transfectants (M1-M8) and three neo-only clonal transfectants (N1-N3) were transfected with 10 μg of P750TRCAT reporter plasmid using the standard calcium phosphate protocol described in. Example 1. Forty two hours after transfection with P750TRCAT, the cells were exposed to either 0.01% DMSO (closed bar, FIG. 5A), or 10 ng/ml TPA (crossed-hatched bar, FIG. 5A) or, to water (closed bar, FIG. 5B) or 10 ng/ml EGF (cross-hatched bar, FIG. 5B) for eight hours. Total cell extracts were then prepared from the treated cells and assayed for CAT activity as described in Example 1.

c-Jun = test: immunoprecipitation and densitometry of c-Jun protein in stable JB6 transfectants; conditions: 10 ng/ml, fifteen hours, TAM67 or Neo-only transfectants
Experimental: Three TAM67 clonal transfectants (M4, M3, M6) and one neo-only clonal transfectant (N1) were treated for fifteen hours with either 10 ng/ml TPA (T), 10 ng/ml EGF (E), or 0.1% DMSO (D) prior to metabolic labelling for two hours with 0.2 mCi/ml ^35S -methionine (Amersham, Rockford, Ill.) (Sun, Y. et al. (1993) Mol. Carcinogenesis, 8: 49-57). Cellular lysates were then collected and immunoprecipitations using polyclonal rabbit c-jun antibody (AB-1 antibody, Oncogene Science) were carried out overnite at 4° C. (Sun et al. (1993)). These immunoprecipitates were then analyzed by electrophoresis on 12.5% SDS polyacrylamide gels and these gels are shown in FIG. 4.

JB6 P+ Cl 41.5a cells = test: soft agar transformation assay, JB6 P+ Cl 41.5a cells; conditions: 3 ng/ml TPA, 14 days in 0.33% agar, FA 10^−9-10^−7 M, RA 10^−9-10^−6 M
Experimental: (§1) In order to test whether the same concentration ranges of inhibitors shown in FIGS. 2A and 2B to repress TPA-induced AP-1 activity could also block TPA-induced transformation, a soft agar transformation assay was carried out on JB6 P^+ Cl 41 (cross-hatched bar) or JB6 P^+ Cl 41.5a (closed bar) cells exposed in 0.33% agar for 14 days to 0.01% DMSO alone, 3 ng/ml TPA alone (TPA), 10^−7 or 10^−8 M FA alone (FA7 and FA8, respectively), 10^−6 M RA alone (RA6) 3 ng/ml TPA in the presence of 10^−7-10^−9 M FA (TFA7, TFA8, TFA9) or to 3 ng/ml TPA in 10^−6-10^−9 M retinoic acid (TRA6, TRA7, TRA8, TRA9). Treated cells were scored for colonies after 14 days in agar and transformation response was expressed as the number of soft agar colonies/10^4 suspended cells. […] In agreement with an earlier observation by De Benedetti et al. ((1991) Cancer Res., 51:1158-1164), the sensitivity of Cl 41.5a cells to antipromotion by RA appeared to be greater than that observed with the Cl 41 cells. More importantly, the concentration-dependent range of FA effective in blocking TPA-induced transformation appeared identical to that range which was active in blocking TPA-induced CAT activity by FA (10^−9 M to 10^−7 M FA, see TFA7, TFA8 and TFA9 in FIG. 2A). […]

JB6 P+ Cl 41 cells = test: soft agar transformation assay, JB6 P+ Cl 41 cells; conditions: 3 ng/ml TPA, 14 days in 0.33% agar, FA 10^−9-10^−7 M, RA 10^−9-10^−6 M
Experimental: as §1

Question: Which results are given for CCCCCCCCCCCCCC(=O)O[C@@H]1[C@@H](C)[C@@]2(O)[C@@H](C=C(CO)C[C@]3(O)C(=O)C(C)=C[C@@H]23)[C@@H]2C(C)(C)[C@]12OC(C)=O [TPA, 12-O-tetradecanoyl phorbol 13-acetate]?
Answer: increase in AP-1 dependent CAT activity in neo-only transfectants (AP-1; 10 ng/ml, eight hours, N1-N3 transfectants, P750TRCAT): 3 to 4.5 fold; CAT activity relative to uninduced cells, P750TRCAT reporter (AP-1; 10 ng/ml, eight hours, P750TRCAT-transfected JB6 P+ Cl 41 cells): about 2 fold; CAT activity relative to uninduced cells, mPEA3-CAT reporter (AP-1; 10 ng/ml, eight hours, mPEA3-CAT-transfected JB6 P+ Cl 41 cells (PEA3 sites mutated)): about 2 fold; inducibility of CAT activity, mTRE-CAT reporter (AP-1; 10 ng/ml, eight hours, mTRE-CAT-transfected cells (AP-1 binding site mutated)): loss of inducibility; c-Jun protein levels (43 kDa band, densitometric analysis) (c-Jun): no significant differences

Question: What does the source list for CC1(C)O[C@@H]2C[C@H]3[C@@H]4C[C@H](F)C5=CC(=O)C=C[C@]5(C)[C@@]4(F)[C@@H](O)C[C@]3(C)[C@]2(C(=O)CO)O1 [FA, Fluocinolone acetonide]?
Answer: TPA-induced transformation (soft agar colonies/10^4 suspended cells) (JB6 P+ Cl 41.5a cells): blocked TPA-induced transformation in a concentration-dependent manner; inhibition of TPA-induced CAT activity (AP-1; 10^−9-10^−7 M FA with 10 ng/ml TPA, P750TRCAT): dose-dependent inhibition; TPA-induced transformation (soft agar colonies/10^4 suspended cells) (JB6 P+ Cl 41 cells): blocked TPA-induced transformation in a concentration-dependent manner

Question: How did the “inhibition of TPA-induced CAT activity” value (AP-1; 10^−7-10^−5 M RA with 10 ng/ml TPA, P750TRCAT) turn out when CC1=C(/C=C/C(C)=C/C=C/C(C)=C/C(=O)O)C(C)(C)CCC1 [RA, retinoic acid] was run?
Answer: 90-100%
